From patent US6410792B1, “Amide derivatives and methods for using the same as selective neuropeptide Y receptor antagonists” (Bayer Corporation, priority 1997, dated 2002) come the findings set out here.

SMILES strings stand for the structures. Counter-ions that a name gives are not always drawn. Like-named read-outs stand apart in the source and are kept apart here.

Experiment [1] addresses T1, Rat NPY5 receptor (Rattus norvegicus, UniProt Q63634).
T1 sequence (Q63634 1-445): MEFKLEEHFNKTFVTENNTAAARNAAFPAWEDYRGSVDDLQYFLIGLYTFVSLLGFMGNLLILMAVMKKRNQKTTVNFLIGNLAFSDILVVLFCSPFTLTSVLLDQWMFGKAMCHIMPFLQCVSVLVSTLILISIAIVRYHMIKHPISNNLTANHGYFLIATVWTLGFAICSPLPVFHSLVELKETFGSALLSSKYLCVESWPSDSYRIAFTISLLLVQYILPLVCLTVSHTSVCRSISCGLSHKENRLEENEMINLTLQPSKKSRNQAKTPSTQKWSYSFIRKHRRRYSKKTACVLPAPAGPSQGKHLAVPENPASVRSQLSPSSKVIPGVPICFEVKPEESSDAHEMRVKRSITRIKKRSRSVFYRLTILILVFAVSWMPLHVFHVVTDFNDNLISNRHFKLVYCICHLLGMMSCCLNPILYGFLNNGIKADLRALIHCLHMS
The experiment can be described thus: Rat NPY5 cyclase assay (in vitro functional assay, forskolin-stimulated adenylate cyclase, cAMP). Type of experiment: cell-based. The note with it: percentage of forskolin-stimulated adenylate cyclase; for activity at 10 µM: 20 min, read-out: rNPY5 % FSAC (10 μM). How it is done: D. Rat NYP5 Cyclase Assay (In Vitro Functional Assay)
Cells stably expressing the rat NPY5 receptor are resuspended in serum-free DMEM containing 10 mM HEPES (pH 7.4) and 1 mM isobutylmethylxanthine (IBMX). […] forskolin and drug dilution are then added to the cells. After a 20 minute incubation of the samples at 37° C, the assay is stopped by placing the samples in boiling water for 3 minutes. The cAMP produced in each sample is quantitated with a radioimmunoassay kit (NEN DuPont). Data are expressed as a percentage of forskolin-stimulated adenylate cyclase.

In experiment [2] the target is T1, Rat NPY5 receptor. The experiment is described as follows: Rat NPY5 receptor binding assay ([125I]PYY, membrane protein). The method, boiled down: (§1)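 Compounds compete with porcine [125I]PYY (75-100 pM) for receptor sites on membrane protein over a 2 hour room-temperature incubation at pH 7.4. Unlabelled PYY at 1 μM defines nonspecific binding, and filter-retained radioactivity gives the read-out.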

In experiment [3] the target is T2, Y2 receptor (Homo sapiens, UniProt P49146).
T2 sequence (P49146 1-381): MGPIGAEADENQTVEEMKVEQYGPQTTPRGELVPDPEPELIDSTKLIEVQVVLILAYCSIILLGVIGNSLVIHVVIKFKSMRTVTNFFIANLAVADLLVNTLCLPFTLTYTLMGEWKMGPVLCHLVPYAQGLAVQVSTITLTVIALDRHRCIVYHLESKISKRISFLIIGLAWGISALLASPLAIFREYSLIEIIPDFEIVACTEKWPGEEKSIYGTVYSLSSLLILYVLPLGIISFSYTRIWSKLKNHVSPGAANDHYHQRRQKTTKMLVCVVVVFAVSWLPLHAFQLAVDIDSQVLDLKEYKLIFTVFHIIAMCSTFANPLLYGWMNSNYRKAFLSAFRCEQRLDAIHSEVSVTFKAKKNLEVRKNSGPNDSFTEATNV
The experiment is described as follows: Y2 receptor binding assay ([125I]PYY, membrane protein). The note with it: membrane protein, read-out: hNPY2 IC50. The method, boiled down:
(§2)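 Filtration binding with membrane protein and drug dilution, 2 h at room temperature with mixing, radioactivity counted by gamma or scintillation. Y2: 25 pM [125I]PYY in Krebs-Ringer bicarbonate pH 7.4 with 0.01% BSA, nonspecific by 1 μM NPY. Y4/PP1: 50 pM [125I]hPP in HEPES-buffered saline pH 7.4 with protease inhibitors and 0.3% BSA, nonspecific by 1 μM hPP.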

Experiment [4] deals with T3, Human NPY5 receptor (Homo sapiens, UniProt Q15761).
T3 sequence (Q15761 1-445): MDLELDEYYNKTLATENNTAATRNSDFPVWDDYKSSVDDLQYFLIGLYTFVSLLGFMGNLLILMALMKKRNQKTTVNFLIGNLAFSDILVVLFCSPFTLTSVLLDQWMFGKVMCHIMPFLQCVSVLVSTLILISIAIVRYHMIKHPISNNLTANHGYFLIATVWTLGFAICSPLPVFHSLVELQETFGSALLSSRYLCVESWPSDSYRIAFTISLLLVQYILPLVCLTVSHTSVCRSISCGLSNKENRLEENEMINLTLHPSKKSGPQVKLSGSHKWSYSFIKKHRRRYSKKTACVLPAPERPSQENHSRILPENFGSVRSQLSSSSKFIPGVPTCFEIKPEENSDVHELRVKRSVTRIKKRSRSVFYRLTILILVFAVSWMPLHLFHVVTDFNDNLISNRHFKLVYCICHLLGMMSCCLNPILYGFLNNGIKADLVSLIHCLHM
The experiment is described as follows: Human NPY5 receptor binding assay ([125I]PYY, membrane protein). The method, boiled down:
as §1

In experiment [5] the target is human Y4/PP1 receptor (Homo sapiens, UniProt P50391). The experiment can be described thus: Human Y4/PP1 receptor binding assay ([125I]human PP, membrane protein). The procedure, abridged:
as §2

Experiment [6] concerns the target T4, Human NPY1 receptor (Homo sapiens, UniProt P25929).
T4 construct: host or cells: SK-N-MC cells
T4 sequence (P25929 1-384): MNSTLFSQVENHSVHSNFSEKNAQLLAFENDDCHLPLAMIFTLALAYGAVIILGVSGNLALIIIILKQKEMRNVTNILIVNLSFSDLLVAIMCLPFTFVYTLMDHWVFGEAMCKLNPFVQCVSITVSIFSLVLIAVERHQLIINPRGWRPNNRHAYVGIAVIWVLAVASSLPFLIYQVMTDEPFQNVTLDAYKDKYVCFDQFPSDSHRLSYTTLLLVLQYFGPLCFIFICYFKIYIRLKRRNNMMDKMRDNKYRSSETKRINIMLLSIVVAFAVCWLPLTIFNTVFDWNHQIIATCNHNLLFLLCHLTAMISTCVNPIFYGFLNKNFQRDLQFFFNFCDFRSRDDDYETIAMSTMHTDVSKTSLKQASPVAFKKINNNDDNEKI
The experiment is described as follows: Human NPY1 receptor binding assay ([125I]PYY, SK-N-MC cells). The method, boiled down: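 Whole-cell competition with ~50 pM [125I]PYY on SK-N-MC monolayers, 3 h at room temperature after 30 min preincubation in HEPES-buffered (pH 7.3) serum-free DMEM containing protease inhibitors. Gamma counting of cell lysates; 1 μM NPY gave nonspecific binding.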

Where [7] appears, read: [125I]PYY, read-out: rNPY5 IC50.
The mark [8] stands for this setting: [125I]human PP, membrane protein, read-out: hNPY4 IC50.
The mark [9] stands for this setting: [125I]PYY, read-out: hNPY5 IC50.
Where [10] appears, read: [125I]PYY, SK-N-MC cells, read-out: hNPYI IC50.

A word on the IC50: it is the point on the concentration scale where inhibition reaches its midpoint.

Sequence of human Y4/PP1 receptor (P50391 whole entry): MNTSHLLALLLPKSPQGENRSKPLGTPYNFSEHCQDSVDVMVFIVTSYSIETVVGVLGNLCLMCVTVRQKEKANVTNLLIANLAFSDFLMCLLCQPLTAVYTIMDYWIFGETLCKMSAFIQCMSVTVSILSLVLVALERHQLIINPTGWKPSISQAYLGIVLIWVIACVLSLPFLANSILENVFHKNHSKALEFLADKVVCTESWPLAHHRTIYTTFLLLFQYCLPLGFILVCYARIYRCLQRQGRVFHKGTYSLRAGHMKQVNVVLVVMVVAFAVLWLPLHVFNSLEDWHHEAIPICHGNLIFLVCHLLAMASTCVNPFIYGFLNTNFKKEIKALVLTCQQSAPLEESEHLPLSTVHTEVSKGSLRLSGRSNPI

Regarding `O=C(CN1CCC(O)(c2ccccc2)CC1)Nc1ccc(C2CCCCC2)cc1` [Compound 26, N-(4-Cyclohexyl-phenyl)-2-(4-hydroxy-4-phenyl-piperidin-1-yl)-acetamide], in experiment [1] (compound at 10 μM), the activity at 10 µM was 111%. For the same compound, the IC50 in experiment [2] (rNPY5 IC50, [125I]PYY binding) is 37 nM; in experiment [3] ([125I]PYY binding) it was more than 5 µM; in experiment [4] (hNPY5 IC50, [125I]PYY binding), 93 nM.
Regarding `CNC1(C(N)=O)CCN(CC(=O)Nc2ccc(C3CCCCC3)cc2)CC1` [Compound 30, 1-[(4-Cyclohexyl-phenylcarbamoyl)-methyl]-4-methylamino-piperidin-4-carboxylic acid amide], the activity at 10 µM in experiment [1] (compound at 10 μM) amounted to 107%. Also, the IC50 in experiment [2] ([125I]PYY binding, read-out: rNPY5 IC50) was 13 nM; in experiment [3] ([125I]PYY binding), more than 5 µM; in experiment [4] ([125I]PYY binding, read-out: hNPY5 IC50), 60 nM.
For `Cc1ccc(OC(=O)c2ccc(NC(=O)CN3CCC(n4c(=O)[nH]c5ccccc54)CC3)cc2)cc1` [Compound 264, 4-{2-[4-(2-Oxo-2,3-dihydro-benzoimidazol-1-yl)-piperidin-1-yl]-acetylamino}-benzoic acid P-tolyl ester; hydrochloride], in experiment [1] (10 μM), the activity at 10 µM was found to be 139%. For the same compound, the IC50 was 100 nM in experiment [2] (setting [7]), more than 5 µM in experiment [5] (setting [8]), more than 5 µM in experiment [3] ([125I]PYY) and 180 nM in experiment [4] (setting [9]).
As to `CCCOC1(c2ccccc2)CCN(CC(=O)Nc2ccc(C3CCCCC3)cc2)CC1` [Compound 294, N-(4-Cyclohexyl-phenyl)-2-(4-phenyl-4-propoxy-piperidin-1-yl)-acetamide; hydrochloride], in experiment [1] (10 μM), the activity at 10 µM came to 101%. For the same compound, the IC50 in experiment [2] (rNPY5 IC50, [125I]PYY) was 50 nM; in experiment [6] (setting [10]) it was more than 5 µM; in experiment [5] (setting [8]) it was more than 5 µM; in experiment [3] ([125I]PYY), more than 5 µM; in experiment [4] (hNPY5 IC50, [125I]PYY), 51 nM.
With `N#CC1(c2ccccc2)CCN(CC(=O)Nc2ccc(C3CCCCC3)cc2)CC1` [Compound 295, 2-(4-Cyano-4-phenyl-piperidin-1-yl)-N-(4-cyclohexyl-phenyl)-acetamide; hydrochloride], the activity at 10 µM in experiment [1] (10 μM) turned out to be 101%. Further, the IC50 in experiment [2] (rNPY5 IC50, [125I]PYY) is 4.5 nM; in experiment [6], more than 5 µM; in experiment [5] it was more than 5 µM; in experiment [3] ([125I]PYY) it was more than 5 µM; in experiment [4] (setting [9]) it was 4.7 nM.
Consider `O=C(CN1CCCC1C(O)(c1ccccc1)c1ccccc1)Nc1ccc(C2CCCCC2)cc1` (stereo not shown) [Compound 296, N-(4-Cyclohexyl-phenyl)-2-[2-(hydroxy-diphenyl-methyl)-pyrrolidin-1-yl]-acetamide; compound with oxalic acid], for which the activity at 10 µM in experiment [1] (10 μM) turned out to be 98%. Further, the IC50 in experiment [2] (setting [7]) is 43 nM; in experiment [6] (setting [10]), more than 5 µM; in experiment [5] (setting [8]) it was more than 5 µM; in experiment [3] ([125I]PYY), more than 5 µM; in experiment [4] (setting [9]) it was 48 nM.
`NC(=O)C1CCCN1CC(=O)Nc1ccc(C2CCCCC2)cc1` (stereo not shown) [Compound 297, 1-[(4-Cyclohexyl-phenylcarbamoyl)-methyl]-pyrrolidin-2-carboxylic acid amide; hydrochloride]: the activity at 10 µM in experiment [1] (10 μM) came to 103%. In addition, the IC50 in experiment [2] (setting [7]) was 45 nM; in experiment [6] (setting [10]), more than 5 µM; in experiment [5] (setting [8]), more than 5 µM; in experiment [3] ([125I]PYY), more than 5 µM; in experiment [4] (setting [9]), 32 nM.
As for `Cc1ccc(C2(O)CCN(CC(=O)Nc3ccc(C4CCCCC4)cc3)CC2)cc1` [Compound 298, N-(4-Cyclohexyl-phenyl)-2-(4-hydroxy-4-p-tolyl-piperidin-1-yl)-acetamide; hydrochloride], the activity at 10 µM in experiment [1] (10 μM) came out at 103%. Also, the IC50 in experiment [2] (rNPY5 IC50, [125I]PYY) was 44 nM; in experiment [6] (setting [10]), more than 5 µM; in experiment [5] (setting [8]), more than 5 µM; in experiment [3] ([125I]PYY), more than 5 µM; in experiment [4] (hNPY5 IC50, [125I]PYY), 30 nM.
`O=C(CN1CCN(c2ccccc2Cl)CC1)Nc1ccc(C2CCCCC2)cc1.O=C(O)C(=O)O` [Compound 299]: in experiment [1] (10 μM), the “rNPY5 % FSAC (10 μM)” value turned out to be 103%. Besides, the IC50 in experiment [2] (setting [7]) is 160 nM; in experiment [6] (setting [10]), more than 5 µM; in experiment [5] (setting [8]) it was more than 5 µM; in experiment [3] ([125I]PYY) it was more than 5 µM; in experiment [4] (setting [9]) it was 140 nM.
`O=C(CN1CCC(O)(Cc2ccccc2)CC1)Nc1ccc(C2CCCCC2)cc1` [Compound 314, 2-(4-Benzyl-4-hydroxy-piperidin-1-yl)-N-(4-cyclohexyl-phenyl)-acetamide; hydrochloride]: the activity at 10 µM in experiment [1] (10 μM) was determined as 110%. Further, the IC50 in experiment [2] (setting [7]) was 100 nM; in experiment [6] (setting [10]) it was more than 5 µM; in experiment [5] (setting [8]), more than 5 µM; in experiment [3] ([125I]PYY), more than 5 µM; in experiment [4] (setting [9]), 130 nM.
For the compound `CCc1cc(Br)c(NC(=O)CN2CCC(n3c(=O)[nH]c4ccccc43)CC2)c(Br)c1` [Compound 330, N-(2,6-Dibromo-4-ethyl-phenyl)-2-[4-(2-oxo-2,3-dihydrobenzoimidazol-1-yl)-piperidin-1-yl]-acetamide, reference compound], the activity at 10 µM in experiment [1] (10 μM) stood at 99%. In addition, the IC50 was 260 nM in experiment [2] (setting [7]); more than 5 µM in experiment [6] (setting [10]); more than 5 µM in experiment [5] (setting [8]); more than 5 µM in experiment [3] ([125I]PYY); 440 nM in experiment [4] (setting [9]).
As for `O=C(CN1CCC(n2c(=O)[nH]c3ccccc32)CC1)Nc1ccc(Br)c(Cl)c1` [Compound 342, N-(4-Bromo-3-chloro-phenyl)-2-[4-(2-oxo-2,3-dihydro-benzoimidazol-1-yl)-piperidin-1-yl]-acetamide, reference compound], the activity at 10 µM in experiment [1] (10 μM) came to 105%. In addition, the IC50 in experiment [2] (setting [7]) was 370 nM; in experiment [6] (setting [10]), more than 5 µM; in experiment [5] (setting [8]) it was more than 5 µM; in experiment [3] ([125I]PYY), more than 5 µM; in experiment [4] (setting [9]) it was 276 nM.
